Laboratory results taken from patent publication US20250064968A1, “ANTIBODY-CONJUGATED CHEMICAL […] OF D[…] H[…] LINKERS AND METHODS THEREOF” (Genentech, Inc., priority 2022, published 2025).

Assays:
BRM = target: T1, BRM (Homo sapiens, UniProt P51531); assay: Cell assays to determine DC50 and Dmax (nuclear BRM immunofluorescence after Ab-CIDE treatment); assay type: cell-based; design: DCmax (NCI-H1944): unit not given here; conditions: NCI-H1944 cells, 24 h drug treatment
T1 construct: endogenous in cells; host or cells: HCC515 and H1944 (NCI-H1944) cells
T1 sequence (P51531 whole entry): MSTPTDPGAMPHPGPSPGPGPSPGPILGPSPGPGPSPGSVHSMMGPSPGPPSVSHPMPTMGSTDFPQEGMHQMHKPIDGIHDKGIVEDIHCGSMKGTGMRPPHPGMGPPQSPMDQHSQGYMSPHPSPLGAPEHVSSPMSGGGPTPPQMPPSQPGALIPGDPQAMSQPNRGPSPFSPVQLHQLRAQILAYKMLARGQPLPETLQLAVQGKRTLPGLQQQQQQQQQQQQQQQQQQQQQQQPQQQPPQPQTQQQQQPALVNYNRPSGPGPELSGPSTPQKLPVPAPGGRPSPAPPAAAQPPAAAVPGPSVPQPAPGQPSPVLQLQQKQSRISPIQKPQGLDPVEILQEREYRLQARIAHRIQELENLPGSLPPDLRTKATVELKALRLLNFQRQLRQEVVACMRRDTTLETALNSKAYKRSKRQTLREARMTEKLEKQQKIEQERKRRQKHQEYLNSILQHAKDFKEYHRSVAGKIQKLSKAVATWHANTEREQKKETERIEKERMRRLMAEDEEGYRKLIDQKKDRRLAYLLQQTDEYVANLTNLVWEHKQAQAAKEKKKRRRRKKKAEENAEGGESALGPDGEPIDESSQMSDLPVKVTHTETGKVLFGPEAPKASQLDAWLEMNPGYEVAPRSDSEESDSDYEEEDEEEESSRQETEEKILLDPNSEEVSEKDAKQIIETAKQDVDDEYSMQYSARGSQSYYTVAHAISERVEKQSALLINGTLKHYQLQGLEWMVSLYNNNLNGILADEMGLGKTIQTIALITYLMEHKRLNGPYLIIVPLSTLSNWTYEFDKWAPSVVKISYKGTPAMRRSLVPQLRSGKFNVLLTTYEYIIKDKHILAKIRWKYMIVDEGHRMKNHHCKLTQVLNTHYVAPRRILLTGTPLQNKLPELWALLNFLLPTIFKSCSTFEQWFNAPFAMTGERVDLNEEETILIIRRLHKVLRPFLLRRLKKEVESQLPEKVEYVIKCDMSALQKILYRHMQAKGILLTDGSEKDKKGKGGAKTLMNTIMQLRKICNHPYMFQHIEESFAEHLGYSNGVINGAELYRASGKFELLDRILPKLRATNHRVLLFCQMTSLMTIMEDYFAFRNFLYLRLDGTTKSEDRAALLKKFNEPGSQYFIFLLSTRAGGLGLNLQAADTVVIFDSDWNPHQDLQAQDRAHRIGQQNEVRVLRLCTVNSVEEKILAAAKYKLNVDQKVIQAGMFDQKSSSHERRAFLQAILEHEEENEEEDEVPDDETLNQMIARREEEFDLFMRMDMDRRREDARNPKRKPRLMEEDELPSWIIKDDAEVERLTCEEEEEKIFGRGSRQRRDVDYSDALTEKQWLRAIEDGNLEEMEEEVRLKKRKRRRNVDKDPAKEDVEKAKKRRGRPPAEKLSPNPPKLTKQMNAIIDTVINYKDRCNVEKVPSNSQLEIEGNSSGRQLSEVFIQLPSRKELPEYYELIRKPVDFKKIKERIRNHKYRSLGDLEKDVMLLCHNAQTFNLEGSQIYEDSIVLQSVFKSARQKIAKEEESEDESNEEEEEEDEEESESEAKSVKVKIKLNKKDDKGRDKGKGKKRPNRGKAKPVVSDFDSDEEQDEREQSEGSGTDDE
Experimental: HCC515 and H1944 cells were plated in 384 well plates at 4000 and 2500 cells/well, respectively. The next day Ab-CIDEs were added. Following 24 h of drug treatment the cells were fixed with […] for 15 minutes. The plates were washed three time with PBS. The cells were incubated with IF blocking solution ([…], 10% BSA, 0.1% Triton, 0.010% Azide, X-100 in PBS). After 1.5 h a 2× solution of primary antibody diluted in IF blocking buffer: BRM (Cell signaling Cat #11966, 1:2000) was added. The plates were incubated over night at 4° C. The following morning cells were washed three time with PBS. Cells were then incubated with secondary antibodies (rabbit-Alexa 488 A21206 (1:2000)) for 1 h at room temperature in the dark. Hoechst H3570 at 1:5000 was added to the wells and the plates were incubated for an additional 30 minutes. Plates were wash 3×PBS and image on Opera Phenix™ High Content Screening System. Using nuclear staining as a mask, nuclear BRM mean signal intensity was quantified.

[1] = Stability of antibody-conjugated L1-CIDE at high DAR (DAR 14 synthesis); assay type: physicochemical; conditions: antibody conjugate from DAR 14 synthesis
From the text: The hydrolysable linkers therefore are able to provide an advantage in obtaining high DAR, which results in high numbers of CTDEs that can be attached to a single antibody.

[2] = Ab target TfR2, conjugate DAR 5.41-6.14
[3] = Ab target TfR2, high-DAR conjugate (DAR 13.13-13.75)

Row | Compound | DC50 (BRM; [2]) | DCmax (NCI-H1944) (BRM; [2]) | DC50 (NCI-H1944) (BRM; [2]) | DCmax (NCI-H1944) (BRM; [3]) | DC50 (BRM; Ab target TfR2, high-DAR conjugate (DAR 13.75)) | Stability [1]
1 | Cc1ncsc1-c1ccc([C@H](C)NC(=O)[C@@H]2C[C@@H](O)CN2C(=O)[C@@H](c2cc(OCCN3CCN(CCOc4cc(N5C6CCC5CN(c5cc(-c7ccccc7OCc7ccc(NC(=O)[C@H](CCCCN(C)C)NC(=O)C8(C(=O)NCCCCCNC(=O)[C@H](CO)N9C(=O)C=CC9=O)CCC8)cc7)nnc5N)C6)ccn4)[C@H](C)C3)no2)C(C)C)cc1.O=C(O)C(F)(F)F [Hy-B-CIDE-1] | 128 nM | 89 |  |  |  | 
2 | COC[C@@H](C(=O)NCCCCCNC(=O)C1(C(=O)N[C@@H](CCCCN(C)C)C(=O)Nc2ccc(COc3ccccc3-c3cc(N4CC5CCC(C4)N5c4ccnc(OCCN5CCN(CCOc6cc([C@H](C(=O)N7C[C@H](O)C[C@H]7C(=O)N[C@@H](C)c7ccc(-c8scnc8C)cc7)C(C)C)on6)C[C@H]5C)c4)c(N)nn3)cc2)CCC1)N1C(=O)C=CC1=O.O=C(O)C(F)(F)F [Hy-B-CIDE-2] | 160 nM | 90 |  |  |  | 
3 | Cc1ncsc1-c1ccc([C@H](C)NC(=O)[C@@H]2C[C@@H](O)CN2C(=O)[C@@H](c2cc(OCCN3CCN(CCOc4cc(N5C6CCC5CN(c5cc(-c7ccccc7OCc7ccc(NC(=O)[C@H](CCCCN(C)C)NC(=O)C8(C(=O)NCCN(C)CCN9C(=O)C=CC9=O)CCC8)cc7)nnc5N)C6)ccn4)[C@H](C)C3)no2)C(C)C)cc1.O=C(O)C(F)(F)F [Hy-B-CIDE-5] | 412 nM | 76 |  |  |  | 
4 | Cc1ncsc1-c1ccc([C@H](C)NC(=O)[C@@H]2C[C@@H](O)CN2C(=O)[C@@H](c2cc(OCCN3CCN(CCOc4cc(N5C6CCC5CN(c5cc(-c7ccccc7OCc7ccc(NC(=O)[C@H](CCCCN(C)C)NC(=O)C8(C(=O)NCCCCCNC(=O)CN9C(=O)C=CC9=O)CCC8)cc7)nnc5N)C6)ccn4)[C@H](C)C3)no2)C(C)C)cc1.O=C(O)C(F)(F)F [Hy-B-CIDE-6] |  | 90 | 0.28 µg/mL |  |  | 
5 | CC(C)[C@@H](C(=O)N1C[C@H](O)C[C@H]1C(=O)N[C@@H](C)c1ccc(C#N)cc1)c1cc(OCCN2CCC(O[C@H]3C[C@H](Oc4cc(N5C6CCC5CN(c5cc(-c7ccccc7OCc7ccc(NC(=O)[C@H](CCCCN(C)C)NC(=O)C8(C(=O)NCCN(C)CCN9C(=O)C=CC9=O)CCC8)cc7)nnc5N)C6)ccn4)C3)CC2)no1 [Hy-B-CIDE-7] | 205 nM | 62 |  | 75 | 89.6 nM | Stable
6 | Cc1ncsc1-c1ccc([C@H](C)NC(=O)[C@@H]2C[C@@H](O)CN2C(=O)[C@@H](c2cc(OCCN3CCN(CCOc4cc(N5C6CCC5CN(c5cc(-c7ccccc7OCc7ccc(NC(=O)[C@H](CCCCN(C)C)NC(=O)C8(C(=O)NCCCCCN(C)CCN9C(=O)C=CC9=O)CCC8)cc7)nnc5N)C6)ccn4)[C@H](C)C3)no2)C(C)C)cc1.O=C(O)C(F)(F)F [Hy-B-CIDE-8] | 85.6 nM | 74 |  |  |  | 
7 | CC(C)[C@@H](C(=O)N1C[C@H](O)C[C@H]1C(=O)N[C@@H](C)c1ccc(C#N)cc1)c1cc(OCCN2CCC(O[C@H]3C[C@H](Oc4cc(N5C6CCC5CN(c5cc(-c7ccccc7O)nnc5NC(=O)OCc5ccc(NC(=O)[C@H](CCCCN(C)C)NC(=O)C7(C(=O)NCCCCCN(C)CCN8C(=O)C=CC8=O)CCC7)cc5)C6)ccn4)C3)CC2)no1.O=C(O)C(F)(F)F [Hy-B-CIDE-9] | 2200 nM | 82 |  |  |  | 
8 | CC(C)[C@@H](C(=O)N1C[C@H](O)C[C@H]1C(=O)N[C@@H](C)c1ccc(C#N)cc1)c1cc(OCCN2CCC(O[C@H]3C[C@H](Oc4cc(N5C6CCC5CN(c5cc(-c7ccccc7O)nnc5NC(=O)OCc5ccc(NC(=O)[C@H](CCCCN(C)C)NC(=O)C7(C(=O)NCCCCCNC(=O)[C@H](CO)N8C(=O)C=CC8=O)CCC7)cc5)C6)ccn4)C3)CC2)no1 [Hy-B-CIDE-10] | 4440 nM | 80 |  |  |  | 
9 | CC(C)[C@@H](C(=O)N1C[C@H](O)C[C@H]1C(=O)N[C@@H](C)c1ccc(C#N)cc1)c1cc(OCCN2CCC(O[C@H]3C[C@H](Oc4cc(N5C6CCC5CN(c5cc(-c7ccccc7OCc7ccc(NC(=O)[C@H](CCCCN(C)C)NC(=O)C8(C(=O)NCCCCCN(C)CCN9C(=O)C=CC9=O)CCC8)cc7)nnc5N)C6)ccn4)C3)CC2)no1 [Hy-B-CIDE-11] | 23200 nM | 53 |  |  |  | 
10 | CC(C)[C@@H](C(=O)N1C[C@H](O)C[C@H]1C(=O)N[C@@H](C)c1ccc(C#N)cc1)c1cc(OCCN2CCC(O[C@H]3C[C@H](Oc4cc(N5C6CCC5CN(c5cc(-c7ccccc7OCc7ccc(NC(=O)[C@H](CCCCN(C)C)NC(=O)C8(C(=O)NCCCCCNC(=O)[C@H](CO)N9C(=O)C=CC9=O)CCC8)cc7)nnc5N)C6)ccn4)C3)CC2)no1 [Hy-B-CIDE-12] | 12600 nM | 60 |  |  |  | 
11 | CC(C)[C@@H](C(=O)N1C[C@H](OP(=O)(O)O)C[C@H]1C(=O)N[C@@H](C)c1ccc(C#N)cc1)c1cc(OCCN2CCC(O[C@H]3C[C@H](Oc4cc(N5C6CCC5CN(c5cc(-c7ccccc7OCc7ccc(NC(=O)[C@H](CCCCN(C)C)NC(=O)C8(C(=O)NCCN(C)CCN9C(=O)C=CC9=O)CCC8)cc7)nnc5N)C6)ccn4)C3)CC2)no1 [Hy-B-PCIDE-2] |  |  |  | 42 |  | Stable
